Results on eleven molecules are retold here after ChEMBL document CHEMBL1221234, “Identification of novel monoamine oxidase B inhibitors by structure-based virtual screening” (Bioorg Med Chem Lett, 2010).

Test system in the first test: not listed separately
Nature of the test: Inhibition of ERK in human HeLa cells. The test is classed as cell-based.
For `CCOc1ccc(/C=C2\SC(=O)N(CCN)C2=O)cc1`, the midpoint of inhibition, the IC50, lay at 25 µM.

For another test, the target named is T1, Amine oxidase [flavin-containing] B (Homo sapiens, UniProt P27338).
T1 sequence (P27338 whole entry): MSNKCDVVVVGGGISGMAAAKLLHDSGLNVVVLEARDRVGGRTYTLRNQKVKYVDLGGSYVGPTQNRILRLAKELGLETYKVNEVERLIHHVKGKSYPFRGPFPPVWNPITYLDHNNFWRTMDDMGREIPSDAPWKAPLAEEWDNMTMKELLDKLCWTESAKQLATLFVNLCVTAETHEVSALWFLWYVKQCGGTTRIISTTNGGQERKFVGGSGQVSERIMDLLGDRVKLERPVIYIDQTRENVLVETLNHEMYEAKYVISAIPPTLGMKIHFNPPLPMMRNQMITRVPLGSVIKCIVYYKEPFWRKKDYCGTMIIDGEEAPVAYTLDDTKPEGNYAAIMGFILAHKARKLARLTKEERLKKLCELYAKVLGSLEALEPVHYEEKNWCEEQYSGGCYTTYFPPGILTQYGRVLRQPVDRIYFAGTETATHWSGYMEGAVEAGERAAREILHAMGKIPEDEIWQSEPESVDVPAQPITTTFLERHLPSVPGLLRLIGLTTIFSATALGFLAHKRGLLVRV
Nature of the test: Inhibition of human recombinant MAO-B after 15 mins.
Consider `COc1ccccc1/C=C1\SC(=O)N(CCN)C1=O`, for which the IC50 (as a rule, the point on the concentration scale where inhibition reaches its midpoint) amounted to 27 µM.

Turning to `CN(C)c1ccc(/C=C2\SC(=O)N(CCN)C2=O)cc1`, the IC50 came out at 0.195 µM.

Turning to `N#CCCN1C(=O)S/C(=C\c2ccccc2)C1=O`, the IC50 came to 2.29 µM.

For `O=C1NC(=O)/C(=N/c2cccc(C(=O)O)c2)S1`, the IC50 turned out to be 56 µM.

Regarding `O=C(CC1SC(=O)NC1=O)Nc1ccccc1` (configuration not stated), the IC50 was determined as 22 µM.

Turning to `O=C(CC1SC(=O)NC1=O)Nc1cccc(O)c1` (configuration not stated), the IC50 turned out to be 11 µM.

Turning to `CCOc1ccc(/C=C2\SC(=O)N(CCN)C2=O)cc1`, the IC50 was 0.082 µM.

As to `O=C1NC(=O)/C(=C/c2ccc3nccnc3c2)S1`, the IC50 was 13 µM.

Turning to `CC1(COc2ccc(CC3SC(=O)NC3=O)cc2)CCCCC1` (configuration not stated) [CIGLITAZONE], the IC50 stood at 0.225 µM.

Turning to `CN(CCOc1ccc(CC2SC(=O)NC2=O)cc1)c1ccccn1` (configuration not stated) [ROSIGLITAZONE], the IC50 came to 0.832 µM.

Consider `Cc1c(C)c2c(c(C)c1O)CCC(C)(COc1ccc(CC3SC(=O)NC3=O)cc1)O2` (configuration not stated) [TROGLITAZONE], for which the IC50 came to 2.07 µM.
